Measured values taken from patent publication US5525742A, “Azidophenylcyanoguanidines as photoaffinity probes” (The Upjohn Company, priority 1994, dated 1996).
“And” between values parts separate entries of the source, which are not always exact repeats. Identical values can stand only once.

How the values were obtained:
47 kilodalton protein = test: Competition of photolabeling of the 47 kilodalton protein by nonradiolabeled compound; type: binding, rat
Protocol: (§1) To biochemically identify the proteins that specifically bind the azidophenylcyanguanidines, Example 1a, Example 2a and Example 3a were prepared. A10 cells were grown to confluence in standard culture plates and then washed extensively with EBSS-H. After the final wash, the cells were placed in EBSS-H containing one of the radiolabeled forms of the azidophenylcyanguanidine to be tested. The A10 cells were equilibrated with the radiolabeled compound for 15 minutes at 37° C. The A10 cells were placed on ice and exposed for 1 minute to 600 μwatts/cm^2 of 254 nm UV light. After photolysis, the A10 cells were washed extensively with phosphate buffered saline. Membranes from the A10 cells were solubilized in cocktail of 0.2% Triton X100 detergent and protease inhibitors. The membranes were precipitated with 4 volumes of ice cold acetone for 30 minutes. The precipitate membrane proteins were collected by centrifugation at 20,000 rpm for 30 rain at 4° C. in a Beckman SW-28 rotor. After centrifugation the supernate was discarded and the pellet was dissolved 2% sodium dodecyl sulfate (SDS) as described by O'Farrell (J. Biol. Chem. 250:4007-4021, 1975). The radiolabeled proteins were resolved on an SDS polyacrylamide gel and identified by autoradiography after the gel was stained and dried. […]

[1] = biological target: T1, KATP channel in A10 rat aortic smooth muscle cells (Rattus norvegicus, UniProt Q63563); test: A10 membrane potential assay (DiBAC4(3) fluorescence), KATP channel opening; type: cell-based; details: for block of the hyperpolarizing effect by glyburide: 10 μM glyburide; for block of the hyperpolarizing effect by glyburide / EC50: A10 cells; for EC50: hyperpolarization of membrane potential; for potency relative to N-cyano-N'-(1,1-dimethylpropyl)-N''-3-pyridinylguanidine: A10 membrane potential assay
T1 construct: resting membrane potential of A10 rat aortic smooth muscle cells; host or cells: A10 rat aortic smooth muscle cells
T1 sequence (Q63563 1-1545 isoform Q63563-2): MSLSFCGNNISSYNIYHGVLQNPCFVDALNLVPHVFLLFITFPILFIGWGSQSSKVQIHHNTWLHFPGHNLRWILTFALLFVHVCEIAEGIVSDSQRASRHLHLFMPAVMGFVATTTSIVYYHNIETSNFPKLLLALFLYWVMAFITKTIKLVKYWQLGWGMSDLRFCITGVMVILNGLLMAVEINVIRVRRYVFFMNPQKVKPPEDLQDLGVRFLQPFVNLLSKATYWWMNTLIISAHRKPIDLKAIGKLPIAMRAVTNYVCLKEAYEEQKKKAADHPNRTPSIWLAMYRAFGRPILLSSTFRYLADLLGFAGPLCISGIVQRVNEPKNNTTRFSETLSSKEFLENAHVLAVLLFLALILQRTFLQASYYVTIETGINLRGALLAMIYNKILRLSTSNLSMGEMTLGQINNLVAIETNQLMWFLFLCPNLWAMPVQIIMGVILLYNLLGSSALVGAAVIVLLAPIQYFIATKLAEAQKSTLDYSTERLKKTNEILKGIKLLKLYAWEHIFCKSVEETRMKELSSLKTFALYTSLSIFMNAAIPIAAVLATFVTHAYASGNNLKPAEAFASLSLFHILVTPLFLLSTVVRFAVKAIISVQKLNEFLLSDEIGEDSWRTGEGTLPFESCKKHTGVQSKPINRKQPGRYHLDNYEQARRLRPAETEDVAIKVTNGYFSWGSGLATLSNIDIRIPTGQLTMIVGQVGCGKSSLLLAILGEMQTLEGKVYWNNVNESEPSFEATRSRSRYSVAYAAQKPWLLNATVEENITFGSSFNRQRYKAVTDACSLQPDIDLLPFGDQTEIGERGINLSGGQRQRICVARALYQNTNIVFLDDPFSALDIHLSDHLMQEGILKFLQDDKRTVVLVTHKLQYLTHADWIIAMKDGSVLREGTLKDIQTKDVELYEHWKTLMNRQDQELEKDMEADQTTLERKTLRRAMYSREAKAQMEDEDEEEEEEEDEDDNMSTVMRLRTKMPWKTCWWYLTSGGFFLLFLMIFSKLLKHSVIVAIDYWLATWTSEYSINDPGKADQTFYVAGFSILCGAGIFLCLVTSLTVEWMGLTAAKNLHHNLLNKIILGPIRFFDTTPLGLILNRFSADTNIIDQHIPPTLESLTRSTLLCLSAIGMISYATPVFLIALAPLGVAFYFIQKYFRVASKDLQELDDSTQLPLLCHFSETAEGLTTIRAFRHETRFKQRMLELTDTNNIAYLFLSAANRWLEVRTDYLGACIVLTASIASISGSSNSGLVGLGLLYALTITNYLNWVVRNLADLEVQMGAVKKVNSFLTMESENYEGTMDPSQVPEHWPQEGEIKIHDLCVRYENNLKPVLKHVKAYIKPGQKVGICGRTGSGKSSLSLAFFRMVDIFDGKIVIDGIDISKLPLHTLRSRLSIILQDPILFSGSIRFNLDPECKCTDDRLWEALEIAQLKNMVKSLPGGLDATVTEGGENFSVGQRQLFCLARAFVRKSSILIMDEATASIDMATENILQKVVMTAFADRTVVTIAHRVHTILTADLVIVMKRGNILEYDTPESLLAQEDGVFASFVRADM
T1 sequence (Q63664 whole entry partner): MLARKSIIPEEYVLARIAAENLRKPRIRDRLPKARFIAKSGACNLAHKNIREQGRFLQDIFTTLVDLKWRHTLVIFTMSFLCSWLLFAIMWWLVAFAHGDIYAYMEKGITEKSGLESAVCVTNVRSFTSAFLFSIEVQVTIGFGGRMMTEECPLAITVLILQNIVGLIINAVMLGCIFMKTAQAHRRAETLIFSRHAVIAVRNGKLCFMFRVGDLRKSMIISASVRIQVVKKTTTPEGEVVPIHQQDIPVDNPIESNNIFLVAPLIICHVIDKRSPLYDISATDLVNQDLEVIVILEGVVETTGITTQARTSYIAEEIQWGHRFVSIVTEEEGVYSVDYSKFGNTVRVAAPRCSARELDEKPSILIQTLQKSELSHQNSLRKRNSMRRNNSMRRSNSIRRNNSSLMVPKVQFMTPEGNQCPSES
From the text: (§2) Compounds that modulate KATP channel activity were examined by quantitating the effect of these compounds on the resting membrane potential of A10 rat aortic smooth muscle cells (American Type Culture Collection, number CRL-1476) using a fluorescent, potentialsensitive dye and an instrument to measure changes in cellular fluorescence. The dye of choice is bis(1,3-dibutylbarbituric acid)trimethine oxonol) DiBAC4 (3). Other voltage sensitive dyes could also be used. To optically measure changes in membrane potential, cells were subcultured onto coverglass chambers and grown to confluence. Immediately prior to analysis, cells were washed several times with Earle's balanced salt solution that was buffered to pH 7.4 with 20 mM Hepes (EBSS-H) and then placed in the buffer containing 5 μM DiBAC4 (3). Fluorescent imaging of membrane potential was carried out after the cells were equilibrated with 5 μM DiBAC4 (3) for at least 15 min at 37° C. and then placed in a 35° C. temperature-regulated mini-incubator that was mounted on the stage of laser based imaging cytometer (ACAS 570, Meridian Instruments). The ACAS 570 was configured to excite the cells at 488 nm using an argon ion laser. The fluorescent emission was monitored at 525 nm. To determine the effect of azidophenylcyanoguanidines on membrane potential, the ACAS 570 was configured to collect data once every 60 seconds for at least 25 minutes using the Kinetic program within the ACAS software. In all cases, 7 min. of baseline data were collected before the addition of the compound of interest. Changes in membrane potential were computed using a logistical model developed at Upjohn Laboratories. Control experiments established that solvents such as dimethylsulfoxide and ethanol had no effect at concentrations up to 0.8%.
In FIG. 1 the Y axis represents the change in membrane potential elicited by N-cyano-N'-(1,1-dimethylpropyl)-N''-3-pyridinylguanidine. A positive change represents a hyperpolarization of the membrane potential caused by an opening of a KATP channel. The X axis represents increasing concentrations of N-cyano-N'-(1,1-dimethylpropyl)-N''-3-pyridinylguanidine. […] The EC50 for N-cyano-N'-(1,1-dimethylpropyl)-N''-3-pyridinylguanidine in the A10 membrane potential assay is 30 nM. […] In FIG. 2 the Y axis represents change in membrane potential elicited by Example 1. A positive change represents a hyperpolarization of the membrane potential caused by an opening of a KATP channel. The X axis represents increasing concentrations of Example 1. Example 1 is structurally related to N-cyano-N'-(1,1-dimethylpropyl)-N''-3-pyridinylguanidine and has an EC50 of approximately 30 nM in the A10 assay. […] In FIG. 3 the Y axis represents the change in membrane potential elicited by Example 2. A positive change represents a hyperpolarization of the membrane potential caused by an opening of a KATP channel. The X axis represents increasing concentrations of Example 2. Example 2 is structurally related to N-cyano-N'-(1,1-dimethylpropyl)-N''-3-pyridinylguanidine and has an EC50 of approximately 30 nM in the A10 assay.
In FIG. 4A and 4B the Y axis represents a change in membrane potential. In these experiments, a change in the negative direction represents a hyperpolarization of the membrane potential caused by an opening of a KATP channel. In FIG. 4A and 4B the X axis represents time in minutes. Additional experiments indicate that 0.3 and 1.0 μM Example 3 also have no effect on the membrane potential of A10 cells (data not shown). […] Thus, within the azidophenylcyanoguanidine chemical series there are compounds that can be used to identify the cellular components required to open and close KATP close channels.

[2] = tested on: KATP channel in A10 cells; test: Photoinactivation of KATP channels in A10 cells (UV pretreatment, then opener challenge); type: cell-based, rat; details: for responsiveness to N-cyano-N'-(1,1-dimethylpropyl)-N''-3-pyridinylguanidine challenge after pretreatment and UV light: UV 254 nm, 1 min, challenge 1 μM, FIG. 5; for photoinactivation of the A10 KATP channel: compound and UV light
From the text: as §2
Photoinactivation of KATP channels in A10 cells was carried out on cells grown on coverglass chambers. A10 cells were grown to confluence and washed 3 times with EBSS-H. The A10 cells were then equilibrated for 15 min at 37° C. with 100 nM to 30 μM of the azidophenyl-cyanoguanidines. The A10 cells were exposed to 600 μwatts/cm^2 of 254 nm light for 1 min to photoactivate these azidophenyl-cyanoguanidines. After photolysis, the A10 cells were extensively washed with EBSS-H and finally placed in EBSS-H containing 5 μM DiBAC4 (3). The pretreated cells were then challenged with 1 μM N-cyano-N'-(1,1-dimethylpropyl)-N.increment.-3-pyridinylguanidine and changes in membrane potential were measured as described in Section I, above, ASSAY OF KATP CHANNEL MODULATORS. If the KATP channels in A10 cells were covalently photoinactivated by the azidophenyl-cyanoguanidines, then the cells would be unresponsive to the subsequent challenge of KATP openers such as N-cyano-N'-(1,1-dimethylpropyl)-N''-3-pyridinylguanidine. […]

[3] = tested on: calcium-activated potassium channel; test: Responsiveness of photoinactivated A10 cells to agents that open the calcium-activated potassium channel; type: cell-based, rat; details: maximum concentration and UV light
[4] = tested on: cyanoguanidine binding proteins; test: Photolabeling of cyanoguanidine binding proteins in A10 cells (SDS gel, autoradiography); design: species or system rat; details: for apparent molecular weight of the most prominent radiolabeled protein / number of radiolabeled proteins / molecular weight of radiolabeled protein: A10 membrane extracts, UV light
Protocol: (§3) To biochemically identify the proteins that specifically bind the azidophenylcyanguanidines, Example 1a, Example 2a and Example 3a were prepared. A10 cells were grown to confluence in standard culture plates and then washed extensively with EBSS-H. After the final wash, the cells were placed in EBSS-H containing one of the radiolabeled forms of the azidophenylcyanguanidine to be tested. The A10 cells were equilibrated with the radiolabeled compound for 15 minutes at 37° C. The A10 cells were placed on ice and exposed for 1 minute to 600 μwatts/cm^2 of 254 nm UV light. After photolysis, the A10 cells were washed extensively with phosphate buffered saline. Membranes from the A10 cells were solubilized in cocktail of 0.2% Triton X100 detergent and protease inhibitors. The membranes were precipitated with 4 volumes of ice cold acetone for 30 minutes. The precipitate membrane proteins were collected by centrifugation at 20,000 rpm for 30 rain at 4° C. in a Beckman SW-28 rotor. After centrifugation the supernate was discarded and the pellet was dissolved 2% sodium dodecyl sulfate (SDS) as described by O'Farrell (J. Biol. Chem. 250:4007-4021, 1975). The radiolabeled proteins were resolved on an SDS polyacrylamide gel and identified by autoradiography after the gel was stained and dried.

56 kilodalton protein = test: Competition of photolabeling of the 56 kilodalton protein by nonradiolabeled compound; type: binding, rat; details: nonradiolabeled Example 2, 1 nM to 30 uM
Protocol: as §1

27 kilodalton protein = test: Competition of photolabeling of the 27 kilodalton protein by nonradiolabeled compound; type: binding, rat; details: nonradiolabeled Example 3, 1 nM to 30 uM
Protocol: as §3
(§4) There was also a 27 kilodalton protein that was radiolabeled by Example 3a and UV light.

[5] = biological target: T1, KATP channel in A10 rat aortic smooth muscle cells; test: Reversal/block of N-cyano-N'-(1,1-dimethylpropyl)-N''-3-pyridinylguanidine-dependent KATP channel opening in A10 cells (membrane potential); type: cell-based
From the text: as §2
In FIG. 4A and 4B the Y axis represents a change in membrane potential. In these experiments, a change in the negative direction represents a hyperpolarization of the membrane potential caused by an opening of a KATP channel. In FIG. 4A and 4B the X axis represents time in minutes. […]

37 kilodalton protein = test: Competition of photolabeling of the 37 kilodalton protein by nonradiolabeled compound; type: binding, rat; details: nonradiolabeled Example 3, 1 nM to 30 uM
Protocol: as §3, §4

For `CCC(C)(C)N=C(NC#N)Nc1cc(Cl)cc(N=[N+]=[N-])c1` [Example 1, N-(3-azido-5-chlorophenyl)-N'-cyano-N"-(1,1-dimethylpropyl)guanidine], the “inhibition of radiolabeling of the 47 kilodalton protein by Example 1a” value (47 kilodalton protein; nonradiolabeled Example 1, 30 nM to 30 uM) was “specifically inhibited”, the “block of the hyperpolarizing effect by glyburide” value (“block … by glyburide” below) ([1]; data not shown) was “blocked” and the EC50 [1] was roughly 0.03 µM. For the same compound, the “potency relative to N-cyano-N'-(1,1-dimethylpropyl)-N''-3-pyridinylguanidine” value [1] was “as potent as”, the “responsiveness to N-cyano-N'-(1,1-dimethylpropyl)-N''-3-pyridinylguanidine challenge after pretreatment and UV light” value [2] was “concentration dependent loss” and the “photoinactivation of the A10 KATP channel” value [2] was “specifically photoinactivated the A10 KATP channel”. For the same compound, the “responsiveness to agents that open the calcium-activated potassium channel after pretreatment” value [3] was “remained responsive”.
`[3H]C([3H])([3H])C([3H])([3H])C(C)(C)NC(=NC#N)Nc1cc(Cl)cc(N=[N+]=[N-])c1` [Example 1a, N-(3-azido-5-chlorophenyl)-N'-cyano-N''-(1,1-dimethyl-2,2,3,3,3-T5-propyl)guanidine] was tested, and the “apparent molecular weight of the most prominent radiolabeled protein” value [4] was 47 kilodaltons, the “number of radiolabeled proteins” value [4] was “several radiolabeled proteins” and the “labeling in the absence of UV light” value ([4]; no UV light, control experiments) was “no proteins were labeled”.
In the case of `CCC(C)(C)N=C(NC#N)Nc1cc(I)cc(N=[N+]=[N-])c1` [Example 2, N-(3-azido-5-iodophenyl)-N'-cyano-N''-(1,1-dimethylpropyl)guanidine], the “inhibition of radiolabeling of the 47 kilodalton protein by Example 2a” value (47 kilodalton protein; nonradiolabeled Example 2, 1 nM to 30 uM) is reported as “specifically inhibited”, the “inhibition of radiolabeling of the 56 kilodalton protein by Example 2a” value (56 kilodalton protein) is reported as “specifically inhibited” and the “block … by glyburide” value ([1]; data not shown) is reported as “blocked”. The EC50 [1] was roughly 0.03 µM, the “potency relative to N-cyano-N'-(1,1-dimethylpropyl)-N''-3-pyridinylguanidine” value [1] was “as potent as” and the “photoinactivation of the A10 KATP channel” value [2] was “specifically photoinactivated the A10 KATP channel”. For the same compound, the “responsiveness to agents that open the calcium-activated potassium channel after pretreatment” value [3] was “remained responsive”.
For `CCC(C)(C)NC(=NC#N)Nc1cc([125I])cc(N=[N+]=[N-])c1` [Example 2a, N-(3-azido-5-iodo-^125 I-phenyl)-N'-cyano-N''-(1,1-dimethylpropyl) guanidine], the “molecular weight of radiolabeled protein” value [4] was 47 kilodalton and 56 kilodalton.
With `N#CNC(=NC1(c2cccc(F)c2)CCC1)Nc1cc(I)cc(N=[N+]=[N-])c1` [Example 3, N-(3-azido-5-iodophenyl)-N'-cyano-N"-(1-(3-fluorophenyl)cyclobutyl)guanidine] the “inhibition of radiolabeling of the 27 kilodalton protein by Example 3a” value (27 kilodalton protein) was “specifically inhibited”, the “effect on the membrane potential of A10 cells” value (“effect … of A10 cells” below) ([1]; 0.3 μM, data not shown) was “no effect” and the “effect … of A10 cells” value ([1]; 1.0 μM, data not shown) was “no effect”. The “effect … of A10 cells” value ([1]; 10 μM, FIG. 4A) was “no effect”, the “reversal of the effect of N-cyano-N'-(1,1-dimethylpropyl)-N''-3-pyridinylguanidine” value ([5]; 10 μM, in continuing presence of 1 μM opener, FIG. 4B) was “reverses the effect” and the “block of opener-dependent opening of KATP channels” value ([5]; additional experiments, concentration dependence) was “in a concentration dependent manner”. For the same compound, the “mode of action on the KATP channel in A10 cells” value ([5]; conclusion from the data) was “blocker of the KATP channel” and the “inhibition of radiolabeling of the 37 kilodalton protein by Example 3a” value (37 kilodalton protein) was “specifically inhibited”.
With `N#CN=C(Nc1cc([125I])cc(N=[N+]=[N-])c1)NC1(c2cccc(F)c2)CCC1` [Example 3a, N-(3-azido-5-iodo-125I-phenyl)-N'-cyano-N''-[1-(3-fluorophenyl)cyclobutyl]guanidine] the “apparent molecular weight of the most prominent radiolabeled protein” value [4] was 37 kilodaltons, the “molecular weight of radiolabeled protein” value [4] was 27 kilodalton and the “number of radiolabeled proteins” value [4] was “several radiolabeled proteins”.
For `CCC(C)(C)NC(=Nc1cccnc1)NC#N` [N-cyano-N'-(1,1-dimethylpropyl)-N''-3-pyridinylguanidine, reference compound], the “opening of the A10 KATP channel with hyperpolarization” value ([1]; 1 μM, FIG. 4B) was “opens the A10 KATP channel”, the “block … by glyburide” value ([1]; data not shown) was “blocked” and the EC50 [1] was 0.03 µM. For the same compound, the “responsiveness to N-cyano-N'-(1,1-dimethylpropyl)-N''-3-pyridinylguanidine challenge after pretreatment and UV light” value [2] was “remain nearly completely responsive”.
